# Results published in US11498903B2 (BRISTOL-MYERS SQUIBB COMPANY, priority 2017, dated 2022).
# Like-named read-outs stand apart in the source and are kept apart here.
# Molecular target: T1, human APJ receptor (Homo sapiens, UniProt P35414)
# T1 construct: expressed in transfected cells
# T1 sequence (P35414 1-380): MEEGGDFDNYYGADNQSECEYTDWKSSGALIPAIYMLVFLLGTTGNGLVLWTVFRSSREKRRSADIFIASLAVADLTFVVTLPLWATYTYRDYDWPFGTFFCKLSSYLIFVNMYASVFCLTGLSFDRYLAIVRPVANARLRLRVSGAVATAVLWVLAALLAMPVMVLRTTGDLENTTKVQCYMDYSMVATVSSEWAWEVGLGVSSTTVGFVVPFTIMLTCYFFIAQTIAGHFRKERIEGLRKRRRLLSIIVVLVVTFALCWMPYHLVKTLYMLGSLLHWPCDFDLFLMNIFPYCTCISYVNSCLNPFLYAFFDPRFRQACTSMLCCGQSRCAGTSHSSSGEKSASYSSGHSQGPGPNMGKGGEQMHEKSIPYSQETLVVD
# Experiment: Intracellular cAMP accumulation assay (APJ hcAMP, HTRF)
# Type: cell-based
# Conditions: HEK293 cells stably expressing human APJ receptor
# Procedure, shortened: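 Inhibition of 2 μM forskolin-driven cAMP ([…] present) measured by HTRF in 5,000 HEK293 cells/well stably expressing human APJ, 30 min, room temperature. EC50 came from a variable-slope sigmoidal fit; Ymax was relative to (Pyr1)apelin-13 set at 100%.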
# [1] = Table 1, inhibition of forskolin-mediated cAMP production, read-out: APJ hcAMP EC50
# [2] = Table 2, read-out: APJ cAMP Human EC50
SMILES,EC50 [1],EC50 [2]
"CCC[C@@H](NC(=O)c1ccc(-c2cc(Cl)ccc2-c2nc3c(ccc4ccccc43)[nH]2)c(C(=O)O)c1)c1ccccc1 [Example 25, 5′-chloro-2′-{3H-naphtho[1,2-d]imidazol-2-yl}-4-{[(1R)-1-phenylbutyl]carbamoyl}-[1,1′-biphenyl]-2-carboxylic acid]",10 to 100 nM,10 to 100 nM
"CCC[C@@H](NC(=O)c1ccc(-c2cc(Cl)ccc2-c2nc3cc4c(cc3[nH]2)OCO4)c(C(=O)O)c1)c1ccccc1 [Example 26, 5′-chloro-2′-{4,6-dioxa-10,12-diazatricyclo[7.3.0.0^3,^7]dodeca-1(9),2,7,10-tetraen-11-yl}-4-{[(1R)-1-phenylbutyl]carbamoyl}-[1,1′-biphenyl]-2-carboxylic acid]",10 to 100 nM,10 to 100 nM
"CCC[C@@H](NC(=O)c1ccc(-c2cc(Cl)ccc2-c2nc3cc4ccccc4cc3[nH]2)c(C(=O)O)c1)c1ccccc1 [Example 27, 5′-chloro-2′-{1H-naphtho[2,3-d]imidazol-2-yl}-4-{[(1R)-1-phenylbutyl]carbamoyl}-[1,1′-biphenyl]-2-carboxylic acid]",10 to 100 nM,10 to 100 nM
"CCC[C@@H](NC(=O)c1ccc(-c2cc(Cl)ccc2-c2nc3cc(C#N)ccc3[nH]2)c(C(=O)O)c1)c1ccccc1 [Example 28, 5′-chloro-2′-(5-cyano-1H-1,3-benzodiazol-2-yl)-4-{[(1R)-1-phenylbutyl]carbamoyl}-[1,1′-biphenyl]-2-carboxylic acid]",10 to 100 nM,10 to 100 nM
"CCC[C@@H](NC(=O)c1ccc(-c2cc(Cl)ccc2-c2nc3ncncc3[nH]2)c(C(=O)O)c1)c1ccccc1 [Example 29, 5′-chloro-4-{[(1R)-1-phenylbutyl]carbamoyl}-2′-(7H-purin-8-yl)-[1,1′-biphenyl]-2-carboxylic acid]",10 to 100 nM,10 to 100 nM
"CCC[C@@H](NC(=O)c1ccc(-c2cc(Cl)ccc2-c2nc3nc(C)ccc3[nH]2)c(C(=O)O)c1)c1ccccc1 [Example 30, 5′-chloro-2′-{5-methyl-1H-imidazo[4,5-b]pyridin-2-yl}-4-{[(1R)-1-phenylbutyl]carbamoyl}-[1,1′-biphenyl]-2-carboxylic acid]",10 to 100 nM,10 to 100 nM
"CCC[C@@H](NC(=O)c1ccc(-c2cc(Cl)ccc2-c2nc3ncccc3[nH]2)c(C(=O)O)c1)c1ccccc1 [Example 31, 5′-chloro-2′-{1H-imidazo[4,5-b]pyridin-2-yl}-4-{[(1R)-1-phenylbutyl]carbamoyl}-[1,1′-biphenyl]-2-carboxylic acid]",10 to 100 nM,10 to 100 nM
"CCC[C@@H](NC(=O)c1ccc(-c2cc(C)ccc2-c2nc3ccccc3[nH]2)c(C(=O)O)c1)c1ccccc1 [Example 32, 2′-(1H-1,3-benzodiazol-2-yl)-5′-methyl-4-{[(1R)-1-phenylbutyl]carbamoyl}-[1,1′-biphenyl]-2-carboxylic acid]",< 10 nM,< 10 nM
"CCC[C@@H](NC(=O)c1ccc(-c2cc(F)ccc2-c2nc3ccccc3[nH]2)c(C(=O)O)c1)c1ccccc1 [Example 33, 2′-(1H-1,3-benzodiazol-2-yl)-5′-fluoro-4-{[(1R)-1-phenylbutyl]carbamoyl}-[1,1′-biphenyl]-2-carboxylic acid]",< 10 nM,< 10 nM
"CCC[C@@H](NC(=O)c1ccc(-c2ccc(F)cc2-c2nc3ccccc3[nH]2)c(C(=O)O)c1)c1ccccc1 [Example 34, 2′-(1H-1,3-benzodiazol-2-yl)-4′-fluoro-4-{[(1R)-1-phenylbutyl]carbamoyl}-[1,1′-biphenyl]-2-carboxylic acid]",< 10 nM,< 10 nM
"CCC[C@@H](NC(=O)c1ccc(-c2cc(C)ccc2-c2nc3cc(OC)ccc3[nH]2)c(C(=O)O)c1)c1ccccc1 [Example 35, 2′-(5-methoxy-1H-1,3-benzodiazol-2-yl)-5′-methyl-4-{[(1R)-1-phenylbutyl]carbamoyl}-[1,1′-biphenyl]-2-carboxylic acid]",< 10 nM,< 10 nM
"CCC[C@@H](NC(=O)c1ccc(-c2cc(F)ccc2-c2nc3cc(OC)ccc3[nH]2)c(C(=O)O)c1)c1ccccc1 [Example 36, 5′-fluoro-2′-(5-methoxy-1H-1,3-benzodiazol-2-yl)-4-{[(1R)-1-phenylbutyl]carbamoyl}-[1,1′-biphenyl]-2-carboxylic acid]",< 10 nM,< 10 nM
"CCC[C@@H](NC(=O)c1ccc(-c2ccc(F)cc2-c2nc3cc(OC)ccc3[nH]2)c(C(=O)O)c1)c1ccccc1 [Example 37, 4′-fluoro-2′-(5-methoxy-1H-1,3-benzodiazol-2-yl)-4-{[(1R)-1-phenylbutyl]carbamoyl}-[1,1′-biphenyl]-2-carboxylic acid]",< 10 nM,< 10 nM
"CCC[C@@H](NC(=O)c1ccc(-c2cc(C)ccc2-c2nc3cc(C(C)(C)C)ccc3[nH]2)c(C(=O)O)c1)c1ccccc1 [Example 38, 2′-(5-tert-butyl-1H-1,3-benzodiazol-2-yl)-5′-methyl-4-{[(1R)-1-phenylbutyl]carbamoyl}-[1,1-biphenyl]-2-carboxylic acid]",< 10 nM,< 10 nM
"CCC[C@@H](NC(=O)c1ccc(-c2cc(F)ccc2-c2nc3cc(C(C)(C)C)ccc3[nH]2)c(C(=O)O)c1)c1ccccc1 [Example 39, 2′-(5-tert-butyl-1H-1,3-benzodiazol-2-yl)-5′-fluoro-4-{[(1R)-1-phenylbutyl]carbamoyl}-[1,1′-biphenyl]-2-carboxylic acid]",10 to 100 nM,10 to 100 nM
"CCC[C@@H](NC(=O)c1ccc(-c2ccc(F)cc2-c2nc3cc(C(C)(C)C)ccc3[nH]2)c(C(=O)O)c1)c1ccccc1 [Example 40, 2′-(5-tert-butyl-1H-1,3-benzodiazol-2-yl)-4′-fluoro-4-{[(1R)-1-phenylbutyl]carbamoyl}-[1,1′-biphenyl]-2-carboxylic acid]",10 to 100 nM,10 to 100 nM
"CCC[C@@H](NC(=O)c1ccc(-c2cc(Cl)ccc2-c2nc3ccccc3[nH]2)c(C(=O)NOC)c1)c1ccccc1 [Example 41, 2′-(1H-1,3-benzodiazol-2-yl)-5′-chloro-N2-methoxy-N4-[(1R)-1-phenylbutyl]-[1,1′-biphenyl]-2,4-dicarboxamide]",10 to 100 nM,10 to 100 nM
"CCC[C@@H](NC(=O)c1ccc(-c2cc(Cl)ccc2-c2nc3ccccc3[nH]2)c(C(=O)NO)c1)c1ccccc1 [Example 42, 2′-(1H-1,3-benzodiazol-2-yl)-5′-chloro-N2-hydroxy-N4-[(1R)-1-phenylbutyl]-[1,1′-biphenyl]-2,4-dicarboxamide]",10 to 100 nM,10 to 100 nM
"CCC[C@@H](NC(=O)c1ccc(-c2cc(Cl)ccc2-c2nc3ccccc3[nH]2)c(C(=O)OC)c1)c1ccccc1 [Example 43, methyl 2′-(1H-1,3-benzodiazol-2-yl)-5′-chloro-4-{[(1R)-1-phenylbutyl]carbamoyl}-[1,1′-biphenyl]-2-carboxylate]",101 to 500 nM,101 to 500 nM
"CCC[C@@H](NC(=O)c1ccc(-c2cc(Cl)ccc2-c2nc3ccccc3[nH]2)c(C(=O)NS(C)(=O)=O)c1)c1ccccc1 [Example 44, 2′-(1H-1,3-benzodiazol-2-yl)-5′-chloro-N2-methanesulfonyl-N4-[(1R)-1-phenylbutyl]-[1,1′-biphenyl]-2,4-dicarboxamide]",10 to 100 nM,10 to 100 nM
"CCC[C@@H](NC(=O)c1ccc(-c2cc(Cl)ccc2-c2nc3ccccc3[nH]2)c(C(=O)NS(=O)(=O)c2ccc(Cl)cc2)c1)c1ccccc1 [Example 45, 2′-(1H-1,3-benzodiazol-2-yl)-5′-chloro-N2-(4-chlorobenzenesulfonyl)-N4-[(1R)-1-phenylbutyl]-[1,1′-biphenyl]-2,4-dicarboxamide]",101 to 500 nM,101 to 500 nM
"CCC[C@@H](NC(=O)c1ccc(-c2cc(Cl)ccc2-c2nc3cc(Cl)ccc3[nH]2)c(C(=O)O)c1)c1ccccc1 [Example 47, 5′-chloro-2′-(5-chloro-1H-1,3-benzodiazol-2-yl)-4-{[(1R)-1-phenylbutyl]carbamoyl}-[1,1′-biphenyl]-2-carboxylicacid]",< 10 nM,< 10 nM
"CCC[C@@H](NC(=O)c1ccc(-c2cc(Cl)ccc2-c2nc3cc(C(C)C)ccc3[nH]2)c(C(=O)O)c1)c1ccccc1 [Example 48, 5′-chloro-4-{[(1R)-1-phenylbutyl]carbamoyl}-2′-[5-(propan-2-yl)-1H-1,3-benzodiazol-2-yl]-[1,1′-biphenyl]-2-carboxylic acid]",< 10 nM,< 10 nM
"CCC[C@@H](NC(=O)c1ccc(-c2cc(Cl)ccc2-c2nc3cccc(C)c3[nH]2)c(C(=O)O)c1)c1ccccc1 [Example 49, 5′-chloro-2,-(4-methyl-1H-1,3-benzodiazol-2-yl)-4-{[(1R)-1-phenylbutyl]carbamoyl}-[1,1′-biphenyl]-2-carboxylic acid]",10 to 100 nM,10 to 100 nM
"CCC[C@@H](NC(=O)c1ccc(-c2cc(Cl)ccc2-c2nc(C)c(C)[nH]2)c(C(=O)O)c1)c1ccccc1 [Example 50, 5′-chloro-2′-(4,5-dimethyl-1H-imidazol-2-yl)-4-{[(1R)-1-phenylbutyl]carbamoyl}-[1,1′-biphenyl]-2-carboxylic acid]",10 to 100 nM,10 to 100 nM
